# Experimental data from patent US7722863B2, “Use of granzyme b as an hsp70/hsp70 peptide dependent inducer of apoptosis in tumor cells” (Multimmune GmbH, priority 2002, dated 2010).
# Columns and labels:
# Assay type in all cases: cell-based, human
# CX+ tumor cells = test: DAPI staining of nuclear DNA fragmentation; settings: 24 h, camptothecin 4 μg/ml or granzyme B 6 ng/ml
# Protocol: (§1) DAPI-staining: Methanol/aceton fixed cells (0.1×10^6 cells/100 μl) were incubated with 0.5 μg/μl 4,6-diamino-2-phenylindole (DAPI) in PBS/glycerol (3:1), for 15 min in the dark. Following washing in PBS the cells were mounted with Fluorescent Mounting Medium (Dako, Glostrup, Denmark) and than analysed for fluorescence using a Zeiss model Axioscop 2 scanning microscope (Zeiss Jena, Germany) equipped with a 40× objective and standard filters. Apoptosis was visualized with DAPI-staining in 50 cells, each. Images were treated by multiplicative shading correction using software Axiovision (Zeiss Vision Jena, Germany).
# Colo− tumor cells = test: DAPI staining of nuclear DNA fragmentation; settings: 24 h, camptothecin 4 μg/ml or granzyme B 6 ng/ml
# Protocol: as §1
# CX− tumor cells = test: DAPI staining of nuclear DNA fragmentation; settings: 24 h, camptothecin 4 μg/ml or granzyme B 6 ng/ml
# Protocol: as §1
# Colo+ tumor cells = test: DAPI staining of nuclear DNA fragmentation; settings: 24 h, camptothecin 4 μg/ml or granzyme B 6 ng/ml
# Protocol: as §1
# [1] = test system: Hsp70 membrane-negative CX− tumor subline; test: Cell surface binding and uptake of granzyme B (fluorescence microscopy, flow cytometry); settings: data not shown
# Protocol: (§2) Cells (0.5×10^6) were fixed in paraformaldehyde (1% PFA in PBS) for 10 min, and permeabilized in PBS containing BSA (0.5%), NaN3 (0.1%), and saponin (0.1%). Then permeabilized cells were incubated either with the granzyme B-phycoerythrin conjugated monoclonal antibody HC2-PE (IgG1; Hölzel Diagnosbka, Cologne, Germany) with an isotype-matched IgG1 control antibody, at 4° C. for 1 h, in the dark. Following washing cells were analysed on a FACSCalibur instrument (Becton Dickinson, Heidelberg, Germany).
# (§3) Stock solutions of camptothecin (4 mg/ml, Sigma, Munich, Germany) were diluted in DMSO and stored at 4° C. in the dark. Granzyme B (6 ng/ml, Hölzel Diagnostics, Cologne, Germany) solutions were freshly prepared directly before usage. Exponentially growing cells (0.5-1.5×10^6/ml) were incubated either with camptothecin at a final concentration of 4 μg/ml or with purified, enzymatically active granzyme B (10 ng/ml, 1 μg/ml, 2 μg/ml; 4 μg/ml) (Shi et. al. (2000) Methods in Enzymology 322, 125) for 10 min, and 30 min either at 4° C. or at 37° C. After washing in RPMI-1640 medium binding and uptake was determined in nonpermeabilized and permeabilized tumor cells by flow cytometry and fluorescence microscopy on a Axioscop 25 scanning microscope (Zeiss, Jena, Germany) equipped with a 40× objective and standard filters. Images were treated by multiplicative shading correction using the software Axiovison (Zeiss Vison, Jena, Germany). Granzyme B was visualized in red by using the HC2-PE antibody.
# (§4) The preceding findings posed the question whether membrane-bound Hsp70 might enable specific binding and entry of granzyme B into the cytosol. […] A light microscopical analysis of untreated CX+ and Colo+ cells (control) at 4° C. versus 37° C. is shown in the upper row of each panel (FIG. 2A). The corresponding immunofluorescence microscopy of the cells at 4° C. and 37° C. is illustrated below (control). […] (data not shown). […] (FIG. 2B, upper graph). […] However, even at the highest concentration of 4 μg/ml, granzyme B was internalized much more pronounced by Hsp70 membrane-positive as compared to Hsp70-negative tumor cells (CX−/Colo−). Potential ion channels formed by Hsp70 may play a role in the mechansim of selective granzyme B uptake in Hsp70 membrane-positive tumor cells. Indeed, a particular ion conductance pathway was observed after incorporation of vesicles derived from purified phospholipids of Hsp70 membrane-positive (CX+) tumor sublines. This was not seen in vesicles obtained from Hsp70 membrane-negative (CX−) tumor cells (data not shown).
# [2] = test system: Hsp70 membrane-positive Colo+ tumor subline; test: as above
# Protocol: as §2, §3, §4
# [3] = test system: Hsp70 membrane-negative Colo− tumor subline; test: as above; settings: data not shown
# Protocol: as §2, §3, §4
# [4] = test system: Hsp70 membrane-positive CX+ cells; test: Annexin V-FITC apoptosis assay (flow cytometry); settings: for apoptosis in CX+ cells / amount of Annexin V-FITC positively stained CX+ cells / fold increase of Annexin V-FITC positively stained CX+ cells: camptothecin 4 μg/ml or granzyme B 6 ng/ml; for fold increase of Annexin V-FITC positively stained CX+ cells: versus untreated
# Protocol: (§5) Exponentially growing tumor cells (day 1 after cell passage) were used for granzyme B, camptothecin treatment and as targets in cytotoxicity assays.
# as §3
# (§6) Apoptotic Cell Death was Determined after Incubation of Tumor Cells with 6 ng/ml Granzyme B for 4 h, 12 h, and 24 h at 37° C. and Washing in RPMI-1640 Medium by Different Apoptosis Assays, as Described Below. Apoptosis Assays
# (§7) Annexin V-FITC staining: Briefly, cells were washed twice in Hepes buffer containing 5 mM CaCl2 and incubated with Annexin V-FITC (Roche) for 10 min at room temperature. Annexin V-FITC positively stained cells were measured on a FACSCalibur flow cytometer (Becton Dickinson, Heidelberg, Germany).
# (§8) The preceding findings posed the question whether purified granzyme B can induce apoptosis of tumor cells that present Hsp70 on their cell surface. […] As a positive control for apoptosis all cell types were incubated with the topoisomerase inhibitor camptothecin at a concentration of 4 μg/ml. Apoptosis was determined by Annexin V-FITC staining measured by FACS (FACSCalibur, Becton Dickinson, Heidelberg, Germany), DAPI staining and mitochondrial cytochrome c release. Apoptosis was not detected in CX+ and CX− cells incubated with camptothecin (cam) or granzyme B (grB) for 4 h incubation (FIG. 3A). […] It appeared that the colon carcinoma sublines CX+/CX− are better protected towards a camptothecin-mediated cell death as compared to the pancreas carcinoma sublines Colo+/Colo−.
# [5] = test system: Hsp70 membrane-negative CX− cells; test: Annexin V-FITC apoptosis assay (flow cytometry); settings: for apoptosis in CX− cells: camptothecin 4 μg/ml or granzyme B 6 ng/ml
# Protocol: as §5, §3, §6, §7, §8
# [6] = test system: Hsp70 membrane-positive Colo+ cells; test: Annexin V-FITC apoptosis assay (flow cytometry); settings: granzyme B 6 ng/ml
# Protocol: as §5, §3, §6, §7, §8
# [7] = test system: Hsp70 membrane-negative Colo− cells; test: Annexin V-FITC apoptosis assay (flow cytometry); settings: 12 h and 24 h; camptothecin 4 μg/ml or granzyme B 6 ng/ml
# Protocol: as §5, §3, §6, §7, §8
substance,measurement,setting,value
granzyme B,nuclear DNA fragmentation (DAPI),CX+ tumor cells,DNA fragmentation was detected
same,nuclear DNA fragmentation (DAPI),Colo− tumor cells,no DNA fragmentation was observed
same,nuclear DNA fragmentation (DAPI),CX− tumor cells,no DNA fragmentation was observed
same,nuclear DNA fragmentation (DAPI),Colo+ tumor cells,DNA fragmentation was detected
same,granzyme B cell surface binding (immunofluorescence),[1]; 4° C.,either exhibited any granzyme B cell surface binding at 4 °C
same,granzyme B uptake (immunofluorescence),[1]; 37° C.,nor uptake at 37 °C
same,"granzyme B uptake, flow cytometry of permeabilized cells","[2]; 1 μg/ml granzyme B, 30 min, 37° C.",faint shift of the granzyme B peak to the right
same,"granzyme B uptake, flow cytometry of permeabilized cells",[2]; 2 μg/ml and 4 μg/ml granzyme B,dose-dependent increase in granzyme B uptake
same,granzyme B cell surface binding (immunofluorescence),"[2]; 15 min at 4° C., granzyme B 2 μg/ml","typical cell surface staining, was detected"
same,"granzyme B uptake, cytoplasmic staining (immunofluorescence)","[2]; temperature shift 4° C. to 37° C., 30 min",resulted in uptake of granzyme B
same,granzyme B cell surface binding (immunofluorescence),[3]; 4° C.,either exhibited any granzyme B cell surface binding at 4 °C
same,granzyme B uptake (immunofluorescence),[3]; 37° C.,nor uptake at 37 °C
same,apoptosis in CX+ cells,[4]; 4 h incubation,not detected
same,amount of Annexin V-FITC positively stained CX+ cells,"[4]; 12 h, untreated 16.6%",20.9%
same,fold increase of Annexin V-FITC positively stained CX+ cells,[4]; 12 h,1.3 fold
same,apoptosis in CX+ cells,[4]; 12 h and 24 h,apoptosis was observed
same,amount of Annexin V-FITC positively stained CX+ cells,"[4]; 24 h, untreated 18%",30.2%
same,fold increase of Annexin V-FITC positively stained CX+ cells,[4]; 24 h,1.8 fold
same,fold increase of Annexin V-FITC positively and PI negatively stained CX+ cells,"[4]; 24 h granzyme B, representative analysis FIG. 3B",1.7 fold
same,amount of Annexin V-FITC positively and propidium iodide (PI) negatively stained CX+ cells,"[4]; 24 h granzyme B, representative analysis FIG. 3B, untreated control 18%",30%
same,apoptosis in CX− cells,[5]; 4 h incubation,not detected
same,apoptosis in CX− cells,[5]; 12 h and 24 h,neither a 12 h nor a 24 h treatment with granzyme B induces apoptosis
same,amount of apoptotic CX− cells before and after treatment,"[5]; 24 h granzyme B, FIG. 3B",remained unaltered
same,fold increase in the amount of Annexin V-FITC positively stained Colo+ cells,[6]; 12 h,1.3 fold
same,fold increase in the amount of Annexin V-FITC positively stained Colo+ cells,[6]; 24 h,2.4 fold
same,apoptosis in Colo− cells,[7],neither a 12 h nor a 24 h treatment with granzyme B induces apoptosis
